# According to patent US12649712B2, “Indene compounds, pharmaceutical compositions thereof, and their therapeutic applications” (NucMito Pharmaceuticals Co. Ltd., priority 2020, dated 2026):
# Tested on: alpha-smooth muscle actin (α-SMA)
# Test: Inhibition of TGF-β induced expression of alpha-smooth muscle actin (α-SMA) in CFSC cells, western blot
# Format: cell-based
# Settings: compound at 10 μM, TGF-β (10 ng/mL), 24 hours, decrease in band intensity vs TGF-β only
# Method: The ability of a compound to inhibit the TGF-β induced expression of alpha-smooth muscle actin (α-SMA) was evaluated in CCL4-treated fat storing (CFSC) cells. α-SMA is considered as a reliable marker of hepatic stellate cell activation and a key biomarker for liver fibrosis. See, e.g., Meng et al., Nat. Rev. Nephrol. 2016, 12, 325-38; Fabregat et al., FEBS J. 2016, 283, 2219-32.
# CFSC cells maintained in a DMEM medium supplemented with 10% fetal bovine serum were seeded to 12-well culture dishes and grown to a confluence of 60-70% the next day. Culture was changed to a serum-free DMEM medium and treated with a compound at 10 μM in the presence of TGF-β (10 ng/mL). The cells were incubated for another 24 hours. All culture was maintained at 37° C. in 5% carbon dioxide.
# A NP-40 lysate solution (50 mM Tris (pH 7.4), 150 mM NaCl, 1% NP-40) with EDTA free cocktail added was used to lyse the cells on ice for 30 min. The lysate was collected and centrifuged at 4° C. for 10 min at 12,000 rpm. The pellet was discarded and the supernatant was transferred to a new tube. Cell lysates were loaded with 5×loading buffer and boiled for 10 min, resolved by 10% SDS-polyacrylamide gel electrophoresis (SDS-PAGE), and transferred to PVDF membrane. The membrane was blocked with 5% skim milk in Tris-buffered saline and TWEEN® 20 (TBST; 10 mM Tris-HCl (pH 8.0), 150 mM NaCl, 0.1% TWEEN® 20) for 1 h at room temperature and then incubated with α-SMA and […] antibodies overnight at 4° C. After washing twice with TBST, the membrane was probed with a horseradish […] anti-immunoglobulin (1:5000 dilution) for 1 h at room temperature. After two subsequent rinses in TBST, immunoreactive products were reacted with ECL and visualized by a UVP CHEMSTUDIO™ imaging system. The western blotting bands are quantitated using an ImageJ software. The percentage of inhibition was obtained by calculating the percentage decrease in the band intensity compared to the one treated with TGF-β only.
# The results are summarized in Table 1, wherein A represents a value no less of 90% inhibition, B represents a value less than 90% but no less than 80% inhibition, C represents a value less than 80% but no less than 70% inhibition, D represents a value less than 70% but no less than 50% inhibition, and E represents a value less than 50% with a compound at 10 μM.
row,Compound,inhibition at 10 µM
1,"CC1=C(CC(=O)O)c2cc(F)ccc2/C1=C\c1ccc(N(C)c2ccccc2)cc1 [Compound A29, 2-[(1Z)-5-Fluoro-2-methyl-1-({4-[methyl(phenyl)amino]phenyl}methylidene)-1H-inden-3-yl]acetic acid]",70 to 80%
2,"CC1=C(CC(=O)O)c2cc(F)ccc2/C1=C\c1ccc(N(Cc2ccccc2)c2ccc(F)cc2)cc1 [Compound A30, 2-[(1Z)-1-({4-[Benzyl(4-fluorophenyl)amino]phenyl}methylidene)-5-fluoro-2-methyl-1H-inden-3-yl]acetic acid]",70 to 80%
3,"CC1=C(CC(=O)O)c2cc(F)ccc2/C1=C\c1ccc(N(C)c2ccc(F)cc2)cc1 [Compound A31, 2-[(1Z)-5-Fluoro-1-({4-[(4-fluorophenyl)(methyl)amino]phenyl}methylidene)-2-methyl-1H-inden-3-yl]acetic acid]",> 90%
4,"CCN(c1ccc(F)cc1)c1ccc(/C=C2/C(C)=C(CC(=O)O)c3cc(F)ccc32)cc1 [Compound A32, 2-[(1Z)-1-({4-[Ethyl(4-fluorophenyl)amino]phenyl}methylidene)-5-fluoro-2-methyl-1H-inden-3-yl]acetic acid]",> 90%
5,"CCCN(c1ccc(F)cc1)c1ccc(/C=C2/C(C)=C(CC(=O)O)c3cc(F)ccc32)cc1 [Compound A33, 2-[(1Z)-5-Fluoro-1-({4-[(4-fluorophenyl)(propyl)amino]phenyl}methylidene)-2-methyl-1H-inden-3-yl]acetic acid]",70 to 80%
6,"CC1=C(CC(=O)O)c2cc(F)ccc2/C1=C\c1ccc(N(CCO)c2ccc(F)cc2)cc1 [Compound A34, 2-[(1Z)-5-Fluoro-1-({4-[(4-fluorophenyl)(2-hydroxyethyl)amino]phenyl}-methylidene)-2-methyl-1H-inden-3-yl]acetic acid]",> 90%
7,"CC1=C(CC(=O)O)c2cc(F)ccc2/C1=C\c1ccc(N(c2ccc(F)cc2)c2ccc(C=O)cc2)cc1 [Compound A35, 2-[(1Z)-5-Fluoro-1-({4-[(4-fluorophenyl)(4-formylphenyl)amino]phenyl}-methylidene)-2-methyl-1H-inden-3-yl]acetic acid]",> 90%
8,"CC1=C(CC(=O)O)c2cc(F)ccc2/C1=C\c1ccc(N(c2ccccc2)c2ccc(C=O)cc2)cc1 [Compound A36, 2-[(1Z)-5-Fluoro-1-({4-[(4-formylphenyl)(phenyl)amino]phenyl}methylidene)-2-methyl-1H-inden-3-yl]acetic acid]",> 90%
9,"CC1=C(CC(=O)NO)c2cc(F)ccc2/C1=C\c1ccc(N(Cc2ccccc2)c2ccc(F)cc2)cc1 [Compound A38, 2-[(1Z)-1-({4-[Benzyl(4-fluorophenyl)amino]phenyl}methylidene)-5-fluoro-2-methyl-1H-inden-3-yl]-N-hydroxyacetamide]",70 to 80%
10,"CC1=C(Cc2nnn[nH]2)c2ccccc2/C1=C\c1cccc(Oc2ccccc2)c1 [Compound A39, 5-{[(1Z)-2-Methyl-1-[(3-phenoxyphenyl)methylidene]-1H-inden-3-yl]methyl}-1H-1,2,3,4-tetrazole]",> 90%
11,"CC1=C(Cc2nnn[nH]2)c2ccccc2/C1=C\c1ccc(Oc2ccccc2)cc1 [Compound A40, 5-{[(1Z)-2-Methyl-1-[(4-phenoxyphenyl)methylidene]-1H-inden-3-yl]methyl}-1H-1,2,3,4-tetrazole]",> 90%
12,"CC1=C(CCc2nnn[nH]2)c2ccccc2/C1=C\c1ccc(Oc2ccc(Br)cc2)cc1 [Compound A42, 5-{2-[(1Z)-1-{[4-(4-Bromophenoxy)phenyl]methylidene}-2-methyl-1H-inden-3-yl]ethyl}-1H-1,2,3,4-tetrazole]",70 to 80%
13,"CC1=C(CCc2nnn[nH]2)c2ccccc2/C1=C\c1ccc(Oc2ccc(C(C)C)cc2)cc1 [Compound A43, 5-{2-[(1Z)-2-Methyl-1-({4-[4-(propan-2-yl)phenoxy]phenyl}methylidene)-1H-inden-3-yl]ethyl}-1H-1,2,3,4-tetrazole]",> 90%
14,"CC1=C(CCc2nnn[nH]2)c2ccccc2/C1=C\c1ccc(Oc2ccc(C(F)(F)F)cc2)cc1 [Compound A45, 5-{2-[(1Z)-2-Methyl-1-({4-[4-(trifluoromethyl)phenoxy]phenyl}methylidene)-1H-inden-3-yl]ethyl}-1H-1,2,3,4-tetrazole]",> 90%
15,"CC1=C(CCc2nnn[nH]2)c2ccccc2/C1=C\c1ccc(Oc2cccc(C)c2)cc1 [Compound A46, 5-{2-[(1Z)-2-Methyl-1-{[4-(3-methylphenoxy)phenyl]methylidene}-1H-inden-3-yl]ethyl}-1H-1,2,3,4-tetrazole]",> 90%
16,"CC1=C(CCc2nnn[nH]2)c2ccccc2/C1=C\c1ccc(Oc2cccc(C#N)c2)cc1 [Compound A47, 3-(4-{[(1Z)-2-Methyl-3-[2-(1H-1,2,3,4-tetrazol-5-yl)ethyl]-1H-inden-1-ylidene]methyl}phenoxy)benzonitrile]",> 90%
17,"COc1cccc(Oc2ccc(/C=C3/C(C)=C(CCc4nnn[nH]4)c4ccccc43)cc2)c1 [Compound A48, 5-{2-[(1Z)-1-{[4-(3-Methoxyphenoxy)phenyl]methylidene}-2-methyl-1H-inden-3-yl]ethyl}-1H-1,2,3,4-tetrazole]",> 90%
18,"CC1=C(CCc2nnn[nH]2)c2ccccc2/C1=C\c1ccc(Oc2ccc3ccccc3c2)cc1 [Compound A51, 5-{2-[(1Z)-2-Methyl-1-{[4-(naphthalen-2-yloxy)phenyl]methylidene}-1H-inden-3-yl]ethyl}-1H-1,2,3,4-tetrazole]",> 90%
19,"C1=C(Cc2nnn[nH]2)c2ccccc2/C1=C/c1cccc(Oc2ccccc2)c1 [Compound A54, 5-{[(1E)-1-[(3-Phenoxyphenyl)methylidene]-1H-inden-3-yl]methyl}-1H-1,2,3,4-tetrazole]",> 90%
20,"CC1=C(CC(=O)O)c2cc(F)ccc2/C1=C\c1ccc(N2CCOCC2)cc1 [Compound A55, 2-[(1Z)-5-Fluoro-2-methyl-1-{[4-(morpholin-4-yl)phenyl]methylidene}-1H-inden-3-yl]acetic acid]",< 50%
21,"CC1=C(CC(=O)O)c2cc(F)ccc2/C1=C\c1ccc(-n2cccc2)cc1 [Compound A60, 2-[(1Z)-5-Fluoro-2-methyl-1-{[4-(1H-pyrrol-1-yl)phenyl]methylidene}-1H-inden-3-yl]acetic acid]",< 50%
22,"CC1=C(CC(=O)O)c2c(ccc(F)c2F)/C1=C\c1ccc(Oc2ccc(F)cc2)cc1 [Compound A68, 2-[(1Z)-4,5-Difluoro-1-{[4-(4-fluorophenoxy)phenyl]methylidene}-2-methyl-1H-inden-3-yl]acetic acid]",> 90%
23,"CC1=C(CC(=O)O)c2c(ccc(F)c2C)/C1=C\c1ccc(Oc2ccc(F)cc2)cc1 [Compound A69, 2-[(1Z)-5-Fluoro-1-{[4-(4-fluorophenoxy)phenyl]methylidene}-2,4-dimethyl-1H-inden-3-yl]acetic acid]",> 90%
24,"CC1=C(CC(=O)NO)c2cc(F)ccc2/C1=C\c1ccc(N(CCO)c2ccc(F)cc2)cc1 [Compound A85, 2-[(1Z)-5-Fluoro-1-({4-[(4-fluorophenyl)(2-hydroxyethyl)amino]phenyl}-methylidene)-2-methyl-1H-inden-3-yl]-N-hydroxyacetamide]",> 90%
25,"CC1=C(CC(=O)O)c2cc(F)ccc2/C1=C\c1ccc(C(C)(C)C)cc1 [Compound B10, (Z)-2-(5-fluoro-2-methyl-1-(4-t-butylbenzylidene)-1H-inden-3-yl)acetic acid]",70 to 80%
26,"CC1=C(CCc2nnn[nH]2)c2ccccc2/C1=C\c1ccc(C(C)C)cc1 [Compound B30, (Z)-5-(2-(1-(4-isopropylbenzylidene)-2-methyl-1H-inden-3-yl)ethyl)-1H-tetrazole]",> 90%
27,"CC1=C(CC(=O)O)c2cc(F)ccc2/C1=C\c1ccc2ccccc2c1 [Compound B34, 2-[(1Z)-5-fluoro-2-methyl-1-[(naphthalen-2-yl)methylidene]-1H-inden-3-yl]acetic acid]",> 90%
28,"CC1=C(CC(=O)O)c2cc(F)ccc2/C1=C\c1ccc(C)c2ccccc12 [Compound B35, 2-[(1Z)-5-fluoro-2-methyl-1-[(4-methylnaphthalen-1-yl)methylidene]-1H-inden-3-yl]acetic acid]",> 90%
29,"COc1ccc2ccccc2c1/C=C1/C(C)=C(CC(=O)O)c2cc(F)ccc21 [Compound B36, 2-[(1Z)-5-fluoro-1-[(2-methoxynaphthalen-1-yl)methylidene]-2-methyl-1H-inden-3-yl]acetic acid]",> 90%
